ChEMBL document CHEMBL1122575, “Dependence of beta-lactamase stability on substructures within beta-lactam antibiotics” (J Med Chem, 1984)
Converted amounts (≈) assume the structure as drawn. Each block holds one compound with its values, some of them ahead of it.

Columns and labels:
[1] = Relative hydrolysis rate (RHR) was evaluated against RTEM enzyme; assay type: ADME
Escherichia coli [2] = assay: Compound was evaluated for the antibacterial activity against Escherichia coli (RTEM+organism) at 10E6 colony forming units; assay type: functional
Enterobacter cloacae = assay: Compound was evaluated for the antibacterial activity against Enterobacter cloacae with the strains beta-Lactamase-positive (LAC+); assay type: functional
Providencia rettgeri [3] = assay: Compound was evaluated for the antibacterial activity against Providencia rettgeri with the strains beta-Lactamase-positive (LAC+); assay type: functional
Escherichia coli [4] = assay: Compound was evaluated for the antibacterial activity against Escherichia coli (RTEM+organism). 10E6 colony forming units are observed; assay type: functional
Escherichia coli [5] = assay: cEscherichia coli with strain NIHJ (beta-Lactamase-negative (LAC-)); assay type: functional
Klebsiella aerogenes [6] = assay: Compound was evaluated for the antibacterial activity against Klebsiella aerogenes with strain K1- at 10e4/10e6 colony forming units; 0.05/0.1; assay type: functional
Klebsiella aerogenes [7] = assay: Compound was evaluated for the antibacterial activity against Klebsiella aerogenes with strain K1+ at 10e4/10e6 colony forming units; 12.5/>100; assay type: functional
[8] = Relative hydrolysis rate (RHR) was evaluated against K1 enzyme; assay type: ADME
Escherichia coli [9] = assay: Compound was evaluated for the antibacterial activity against Escherichia coli (RTEM-organism) at 10e4/10e6 colony forming units; <0.05/0.1; assay type: functional
Escherichia coli [10] = assay: Compound was evaluated for the antibacterial activity against Escherichia coli (RTEM+organism) at 10e4/10e6 colony forming units; 0.1/0.1; assay type: functional
Escherichia coli [11] = assay: Relative hydrolysis rate (RHR) was evaluated against Escherichia coli with the strain RTEM; assay type: ADME, organism-based
Escherichia coli [12] = assay: Compound was evaluated for the antibacterial activity against Escherichia coli (RTEM+organism). 10e4/10e6 colony forming units are observed; 3.1/25; assay type: functional
Providencia rettgeri [13] = assay: Compound was evaluated for the antibacterial activity against Providencia rettgeri with the strain beta-Lactamase-negative (LAC-); assay type: functional
Escherichia coli [14] = assay: Compound was evaluated for the antibacterial activity against Escherichia coli (RTEM-organism) at 10e4/10e6 cfu; 1.6/1.6; assay type: functional
Escherichia coli [15] = assay: Compound was evaluated for the antibacterial activity against Escherichia coli (RTEM+organism) at 10e4/10e6 cfu; 0.8/3.1; assay type: functional
Escherichia coli [16] = assay: Compound was evaluated for the antibacterial activity against Escherichia coli (RTEM+organism) at 10e4/10e6 colony forming units; 0.8/3.1; assay type: functional
Klebsiella aerogenes [17] = assay: Compound was evaluated for the antibacterial activity against Klebsiella aerogenes with strain K1+ at 10e4/10e6 cfu; 100/>100; assay type: functional
Klebsiella aerogenes [18] = assay: Compound was evaluated for the antibacterial activity against Klebsiella aerogenes with strain K1- at 10e4/10e6 cfu; 0.2/0.2; assay type: functional
Escherichia coli [19] = assay: Compound was evaluated for the antibacterial activity against Escherichia coli (RTEM-organism) at 10e4/10e6 cfu; 0.1/0.2; assay type: functional
Escherichia coli [20] = assay: Compound was evaluated for the antibacterial activity against Escherichia coli (RTEM+organism) at 10e4/10e6 cfu; 0.4/1.6; assay type: functional
Klebsiella aerogenes [21] = assay: Compound was evaluated for the antibacterial activity against Klebsiella aerogenes with strain K1; 100/>100; assay type: functional
Klebsiella aerogenes [22] = assay: Compound was evaluated for the antibacterial activity against Klebsiella aerogenes with strain K1-; 0.8/0.8; assay type: functional
Escherichia coli [23] = assay: cCompound was evaluated for the antibacterial activity against Escherichia coli (RTEM+ organism); 0.4/0.2; assay type: functional
Escherichia coli [24] = assay: Compound was evaluated for the antibacterial activity against Escherichia coli (RTEM- organism); 0.1/0.4; assay type: functional
[25] = Compound was evaluated for the percentage remaining after 24 hr hydrolysis at a pH 7 at 37 degree Centigrade; conditions: buffer
[26] = Compound was evaluated for the relative Vmax against RTEM enzyme; assay type: ADME
Escherichia coli [27] = assay: Percentage zonal reduction was evaluated against Escherichia coli; assay type: functional
Staphylococcus aureus [28] = assay: Percentage zonal reduction was evaluated against Staphylococcus aureus; assay type: functional
Escherichia coli [29] = assay: Compound was evaluated for the antibacterial activity against Escherichia coli (RTEM-organism) at 10e4/10e6 cfu; 0.2/0.4; assay type: functional
Klebsiella aerogenes [30] = assay: Compound was evaluated for the antibacterial activity against Klebsiella aerogenes with strain K1+ at 10e4/10e6 cfu; 0.2/0.8; assay type: functional
Escherichia coli [31] = assay: Compound was evaluated for the antibacterial activity against Escherichia coli (RTEM+organism) at 10e4/10e6 cfu; 0.1/0.4; assay type: functional
Klebsiella aerogenes [32] = assay: Compound was evaluated for the antibacterial activity against Klebsiella aerogenes with strain K1- at 10e4/10e6 cfu; 0.1/0.4; assay type: functional
Escherichia coli [33] = assay: Compound was evaluated for the antibacterial activity against Escherichia coli (RTEM+organism) at 10e4/10e6 cfu; 0.1/0.2; assay type: functional
Escherichia coli [34] = assay: Compound was evaluated for the antibacterial activity against Escherichia coli (RTEM-organism) at 10e4/10e6 cfu; 0.2/0.2; assay type: functional
Klebsiella aerogenes [35] = assay: Compound was evaluated for the antibacterial activity against Klebsiella aerogenes with strain K1- at 10e4/10e6 cfu; <0.05/0.1; assay type: functional
Klebsiella aerogenes [36] = assay: Compound was evaluated for the antibacterial activity against Klebsiella aerogenes with strain K1+ at 10e4/10e6 cfu; 6.3/>100; assay type: functional
Staphylococcus aureus [37] = assay: Compound was evaluated for the antibacterial activity against Staphylococcus aureus with the strain beta-Lactamase-positive (LAC+)/beta-Lactamase-negative (LAC-); 2/1; assay type: functional
[38] = Relative Vmax was reported; assay type: ADME
Staphylococcus aureus [39] = assay: Relative hydrolysis rate (RHR) was evaluated against Staphylococcus aureus with the strain FS108; assay type: ADME, organism-based
Staphylococcus aureus [40] = assay: Compound was evaluated for the antibacterial activity against Staphylococcus aureus with the strain 209P; assay type: functional
Escherichia coli [41] = assay: Compound was evaluated for the antibacterial activity against Escherichia coli (RTEM+organism) at 10e4/10e6 colony forming units; 25/100; assay type: functional
Escherichia coli [42] = assay: Compound was evaluated for the antibacterial activity against Escherichia coli (RTEM-organism) at 10e4/10e6 cfu; 0.4/1.6; assay type: functional
Klebsiella aerogenes [43] = assay: Compound was evaluated for the antibacterial activity against Klebsiella aerogenes with strain K1- at 10e4/10e6 cfu; 0.4/1.6; assay type: functional
Escherichia coli [44] = assay: Compound was evaluated for the antibacterial activity against Escherichia coli (RTEM+organism) at 10e4/10e6 cfu; 6.3/>100; assay type: functional
Escherichia coli [45] = assay: Compound was evaluated for the relative Vmax against Escherichia coli with strain 609 (beta-Lactamase-positive (LAC+); assay type: ADME, organism-based; conditions: in vivo
Staphylococcus aureus [46] = assay: Compound was evaluated for the antibacterial activity against Staphylococcus aureus with the strains beta-Lactamase-positive (LAC+)/ beta-Lactamase-negative (LAC-); 64/0.03; assay type: functional

Structure (SMILES): Cn1nnnc1SCC1=C(C(=O)[O-])N2C(=O)[C@@H](NC(=O)[C@@H](NC(N)=O)c3ccco3)C2SC1.[Na+] (some centres undefined)
MIC (Enterobacter cloacae): 0.6 µg/mL | MIC (Providencia rettgeri [3]): 0.4 µg/mL

Structure (SMILES): Cn1nnnc1SCC1=C(C(=O)[O-])N2C(=O)[C@@H](NC(=O)[C@H](NC(N)=O)c3ccco3)C2SC1.[Na+] (some centres undefined)
MIC (Enterobacter cloacae): 25 µg/mL | MIC (Providencia rettgeri [3]): 12.5 µg/mL

Structure (SMILES): Cn1nnnc1SCC1=C(C(=O)O)N2C(=O)C(NC(=O)C(C(=O)O)c3ccc(O)cc3)C2SC1 (centres undefined)
RHR [1]: 0.96 | MIC (Escherichia coli [5]): 3.13 µg/mL (≈ 6.18 µM)

Structure (SMILES): CC(=O)N[C@H]1CN(S(=O)(=O)[O-])C1=O.[K+]
remaining at 24 h [25]: > 80% | RVmax [26]: 12

Structure (SMILES): CC1=C(C(=O)O)N2C(=O)[C@@H](NC(=O)[C@@H](N)C3=CCC=CC3)C2SC1 (some centres undefined)
Zone reduction (Escherichia coli [27]): 12% | Zone reduction (Staphylococcus aureus [28]): 25%

Structure (SMILES): COc1cccc(OC)c1C(=O)N[C@@H]1C(=O)N2C1SC(C)(C)C2C(=O)O (some centres undefined)
MIC (Staphylococcus aureus [37]): 2 µg/mL (≈ 5.26 µM) | RVmax [38]: 0.04

Structure (SMILES): CC1(C)SC2[C@@H](NC(=O)Cc3ccccc3)C(=O)N2C1C(=O)O (some centres undefined)
RHR (Staphylococcus aureus [39]): 2.2 | MIC (Staphylococcus aureus [40]): 1.6 µg/mL (≈ 4.78 µM)

Structure (SMILES): CO[C@]1(NC(C)=O)CN(S(=O)(=O)[O-])C1=O.[K+]
remaining at 24 h [25]: < 1% | RVmax [26]: < 0.01

Structure (SMILES): CC1=C(C(=O)O)N2C(=O)[C@@H](NC(=O)[C@H](N)c3ccccc3)[C@H]2SC1 [CEPHALEXIN ANHYDROUS]
Zone reduction (Escherichia coli [27]): 27% | Zone reduction (Staphylococcus aureus [28]): 48%

Structure (SMILES): O=C(Cc1cccs1)N[C@@H]1C(=O)N2C(C(=O)[O-])=C(C[n+]3ccccc3)CS[C@H]12 [CEPHALORIDINE]
RVmax (Escherichia coli [45]): 100 | RHR [8]: 100 | RHR [1]: 100 | RVmax [26]: 100

Structure (SMILES): CC1(C)S[C@@H]2[C@H](NC(=O)Cc3ccccc3)C(=O)N2[C@H]1C(=O)O [PENICILLIN G]
RHR (Staphylococcus aureus [39]): 100 | MIC (Staphylococcus aureus [40]): 0.065 µg/mL (≈ 0.194 µM) | MIC (Staphylococcus aureus [46]): 64 µg/mL (≈ 191 µM) | RVmax [38]: 1

Further lines, results first:

RHR [1]: 100 | MIC (Escherichia coli [2]): 0.1 µg/mL (≈ 0.22 µM)
Structure (SMILES): CO/N=C(\C(=O)N[C@@H]1C(=O)N2C(C(=O)O)=C(COC(C)=O)CSC12)c1csc(N)n1 (some centres undefined)

RHR [1]: 160 | MIC (Escherichia coli [4]): 1.6 µg/mL (≈ 3.39 µM)
Structure (SMILES): CO/N=C(\C(=O)N[C@@H]1C(=O)N2C(C(=O)O)=C(COC(C)=O)C[S@@+]([O-])C12)c1csc(N)n1 (some centres undefined)

RHR [1]: 0 | MIC (Escherichia coli [2]): 0.1 µg/mL (≈ 0.212 µM)
Structure (SMILES): CO/N=C(\C(=O)N[C@@H]1C(=O)N2C(C(=O)O)=C(COC(C)=O)C[S@+]([O-])C12)c1csc(N)n1 (some centres undefined)

MIC (Klebsiella aerogenes [6]): 0.05 µg/mL | MIC (Klebsiella aerogenes [7]): 12.5 µg/mL | RHR [8]: 6.4 | MIC (Escherichia coli [9]): < 0.05 µg/mL | RHR [1]: 0.3 | MIC (Escherichia coli [10]): 0.1 µg/mL
Structure (SMILES): CO/N=C(/C(=O)N[C@@H]1C(=O)N(S(=O)(=O)[O-])[C@@H]1C)c1csc(N)n1.[K+]

RHR (Escherichia coli [11]): 106 | MIC (Escherichia coli [12]): 3.1 µg/mL | RHR [1]: 12 | MIC (Providencia rettgeri [13]): < 0.05 µg/mL
Structure (SMILES): CO/N=C(\C(=O)N[C@H]1CN(S(=O)(=O)[O-])C1=O)c1csc(N)n1.[K+]

MIC (Escherichia coli [14]): 1.6 µg/mL | MIC (Escherichia coli [15]): 0.8 µg/mL
Structure (SMILES): CC(C)(O/N=C(/C(=O)N[C@H]1CN(C(=O)NS(C)(=O)=O)C1=O)c1csc(N)n1)C(=O)[O-].[K+]

RHR [1]: 2.3 | MIC (Escherichia coli [16]): 0.8 µg/mL
Structure (SMILES): CC(C)(O/N=C(\C(=O)N[C@H]1CN(S(=O)(=O)[O-])C1=O)c1csc(N)n1)C(=O)[O-].[K+].[K+]

MIC (Klebsiella aerogenes [17]): 100 µg/mL | RHR [8]: 20 | RHR [1]: 1 | MIC (Klebsiella aerogenes [18]): 0.2 µg/mL | MIC (Escherichia coli [19]): 0.1 µg/mL | MIC (Escherichia coli [20]): 0.4 µg/mL
Structure (SMILES): CO/N=C(/C(=O)N[C@@H]1C(=O)N(S(=O)(=O)[O-])[C@H]1C)c1csc(N)n1.[K+]

MIC (Klebsiella aerogenes [21]): > 100 µg/mL | MIC (Klebsiella aerogenes [22]): 0.8 µg/mL | MIC (Escherichia coli [23]): 0.4 µg/mL | MIC (Escherichia coli [24]): 0.1 µg/mL
Structure (SMILES): C#C[C@@H]1[C@H](NC(=O)/C(=N/OC)c2csc(N)n2)C(=O)N1S(=O)(=O)[O-].[K+]

RHR (Escherichia coli [11]): < 0.02 | MIC (Providencia rettgeri [13]): > 100 µg/mL
Structure (SMILES): CO/N=C(\C(=O)NC1CN(S(=O)(=O)[O-])C1=O)c1csc(N)n1.[K+] (centres undefined)

MIC (Escherichia coli [29]): 0.2 µg/mL | MIC (Klebsiella aerogenes [30]): 0.2 µg/mL | MIC (Escherichia coli [31]): 0.1 µg/mL | MIC (Klebsiella aerogenes [32]): 0.1 µg/mL
Structure (SMILES): CC[C@@H]1[C@H](NC(=O)/C(=N/OC)c2csc(N)n2)C(=O)N1S(=O)(=O)[O-].[K+]

MIC (Escherichia coli [33]): 0.1 µg/mL | MIC (Escherichia coli [34]): 0.2 µg/mL | MIC (Klebsiella aerogenes [35]): < 0.05 µg/mL | MIC (Klebsiella aerogenes [36]): 6.3 µg/mL
Structure (SMILES): C=C[C@@H]1[C@H](NC(=O)/C(=N/OC)c2csc(N)n2)C(=O)N1S(=O)(=O)[O-].[K+]

RHR [1]: 7 | MIC (Escherichia coli [41]): 25 µg/mL
Structure (SMILES): CC(C)O/N=C(\C(=O)N[C@H]1CN(S(=O)(=O)[O-])C1=O)c1csc(N)n1.[K+]

MIC (Klebsiella aerogenes [17]): 100 µg/mL | MIC (Escherichia coli [42]): 0.4 µg/mL | MIC (Klebsiella aerogenes [43]): 0.4 µg/mL | RHR [8]: 106 | RHR [1]: 12 | MIC (Escherichia coli [44]): 6.3 µg/mL
Structure (SMILES): CO/N=C(/C(=O)N[C@H]1CN(S(=O)(=O)[O-])C1=O)c1csc(N)n1.[K+]
